The values below come from patent US12612412B2, “Antiviral heterocyclic compounds” (Enanta Pharmaceuticals, Inc., priority 2021, dated 2026).

Test [1] concerns genotype A, "Long" strain RSV. Kind of test: RSV-A assay (CPE protection in Hep-2 cells, ATPlite readout). As to conditions: human respiratory syncytial virus, genotype A “Long” strain RSV, MOI 0.1, CPE protection, read-out: Human RSV-A (“Long”). Format: cell-based, Human respiratory syncytial virus (HRSV). The procedure, abridged:
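Hep-2 cells (8,000/well) were treated with 2-fold serial compound dilutions in duplicate and infected with RSV at MOI 0.1. After 5 days, protection from cytopathic effect was measured as cell viability by ATPlite luminescence, and EC50 values were derived.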
For orientation: Cellular ATP, detected with luciferase, serves as a proxy for viable cell number.

Test [2] relates to recombinant HMPV CAN97-83 containing eGFP (MPV-GFP1). The test is described as follows: HMPV antiviral assay Method-A (MPV-GFP1 eGFP fluorescence in Vero E6 cells). Type of test: cell-based, Human metapneumovirus (HMPV). As to conditions: human metapneumovirus, Vero C1008, 120 h, read-out: HMPV EC50. The procedure, abridged: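 Vero E6 cells in serum-free OptiMEM with 0.5 μg/mL TPCK-trypsin were infected with eGFP-expressing HMPV CAN97-83 at MOI 0.05, with 8-point twofold dilutions from 8 or 2 μM (0.5% DMSO). After 5 days at 32° C, eGFP fluorescence gave % inhibition versus infected untreated wells. EC50 came from four-parameter logistic fits.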

Consider `C[C@]1(C(N)=O)COc2c1cc([C@@](O)(CNC(=O)c1ccc3nc(NC(=O)[C@@H]4CCCN4)sc3c1)C(F)(F)F)nc2-c1ccc(F)cc1` [Example 160], for which the EC50 was less than 200 nM in test [1] and greater than 500 nM in test [2].

For `C[C@]1(C(N)=O)COc2c1cc([C@@](O)(CNC(=O)c1ccc3nc(CO)sc3c1)C(F)(F)F)nc2-c1ccc(F)cc1` [Example 161], the EC50 in test [1] was less than 200 nM; in test [2], greater than 500 nM.

On to `C[C@]1(C(N)=O)COc2c1cc([C@@](O)(CNC(=O)c1ccc3nc(NCCN)sc3c1)C(F)(F)F)nc2-c1ccc(F)cc1` [Example 165], for which the EC50 was less than 200 nM in test [1] and greater than 500 nM in test [2].

Turning to `COc1cc(C(=O)NC[C@](O)(c2cc3c(c(-c4ccc(F)cc4)n2)OC[C@]3(C)C(N)=O)C(F)(F)F)cc2cc(C3CC3)c(CO)nc12` [Example 166], the EC50 in test [1] is less than 200 nM; in test [2], greater than 500 nM.

Take `COc1cc(C(=O)NC[C@](O)(c2cc3c(c(-c4ccc(F)cc4)n2)OC[C@]3(CO)C(N)=O)C(F)(F)F)cc2cc(C)c(C)nc12` [Example 167]: the EC50 in test [1] is less than 200 nM; in test [2], greater than 500 nM.

Consider `CCn1cc2cc(C(=O)NC[C@](O)(c3cc4c(c(-c5ccc(F)cc5)n3)OC[C@]4(C)C(N)=O)C(F)(F)F)ccc2n1` [Example 168], for which the EC50 in test [1] was less than 200 nM; in test [2], less than 500 nM.

For the compound `CC(C)n1cc2cc(C(=O)NC[C@](O)(c3cc4c(c(-c5ccc(F)cc5)n3)OC[C@]4(C)C(N)=O)C(F)(F)F)ccc2n1` [Example 169], the EC50 in test [1] is less than 200 nM; in test [2], greater than 500 nM.

In the case of `C[C@]1(C(N)=O)COc2c1cc([C@@](O)(CNC(=O)c1ccc3nn(C4CC4)cc3c1)C(F)(F)F)nc2-c1ccc(F)cc1` [Example 170], the EC50 in test [1] was less than 200 nM; in test [2] it was less than 500 nM.

For `CCc1cc2cc(C(=O)NC[C@](O)(c3cc4c(c(-c5ccc(F)cc5)n3)OC[C@]4(C)C(N)=O)C(F)(F)F)cc(OC)c2nc1C` [Example 174], the EC50 was less than 200 nM in test [1] and greater than 500 nM in test [2].

As to `Cc1cc2cc(C(=O)NC[C@](O)(c3cc4c(c(-c5ccc(F)cc5)n3)OC[C@]4(C)C(N)=O)C(F)(F)F)cc(Cl)c2nc1C` [Example 177], the EC50 in test [1] is less than 200 nM; in test [2], less than 500 nM.

With `Cc1cc2cc(C(=O)NC[C@](O)(c3cc4c(c(-c5ccc(F)cc5)n3)OC[C@]4(C)C(N)=O)C(F)(F)F)cc(OC3CC3)c2nc1C` [Example 178], the values for the EC50 in test [1] and in test [2] were less than 200 nM and greater than 500 nM, respectively.

As to `Cc1cc2cc(C(=O)NC[C@](O)(c3cc4c(c(-c5ccc(F)cc5)n3)OC[C@]4(C)C(N)=O)C(F)(F)F)cc(OC(F)(F)F)c2nc1C` [Example 179], the EC50 in test [1] is less than 200 nM; in test [2], greater than 500 nM.

With `Cc1cc2cc(C(=O)NC[C@](O)(c3cc4c(c(-c5ccc(F)c(Cl)c5)n3)OC[C@]4(C)C(N)=O)C(F)(F)F)cc(Cl)c2nc1C` [Example 182], the EC50 was less than 200 nM in test [1] and less than 500 nM in test [2].

Turning to `Cc1cc2cc(C(=O)NC[C@](O)(c3cc4c(c(-c5ccc(F)c(Cl)c5)n3)OC[C@]4(C)C(N)=O)C(F)(F)F)cc(OC(F)(F)F)c2nc1C` [Example 184], the EC50 is less than 200 nM in test [1] and greater than 500 nM in test [2].

Turning to `C[C@]1(C(N)=O)COc2c1cc([C@@](O)(CNC(=O)c1cc(Cl)c3[nH]ccc3c1)C(F)(F)F)nc2-c1ccc(F)cc1` [Example 199], the EC50 in test [1] was less than 200 nM; in test [2] it was greater than 500 nM.

Consider `COc1cc(C(=O)NC[C@](O)(c2cc3c(c(-c4ccc(F)cc4)n2)OC[C@]3(C)C(N)=O)C(F)(F)F)cc2cc[nH]c12` [Example 200], for which the EC50 was less than 200 nM in test [1] and greater than 500 nM in test [2].

Regarding `COC(=O)Nc1cc(C(=O)NC[C@](O)(c2cc3c(c(-c4ccc(F)cc4)n2)OC[C@]3(C)C(N)=O)C(F)(F)F)cc2cc(C)cnc12` [Example 210], the EC50 in test [1] is less than 200 nM; in test [2], less than 500 nM.
